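Exposure lasted 48 hours, with cells grown in 96-well plates and compounds tested at five concentrations. TGI denotes the concentration required for complete inhibition of growth.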
What was measured:
Assay in all cases: NCI anticancer screen, dose series, 48 h
[1] = test system: HCT-116 colon
[2] = test system: OVCAR-5 ovarian
[3] = test system: SK-MEL-2 melanoma
[4] = test system: KM12 colon
[5] = test system: BT-549 breast
[6] = test system: CAKI-1 renal
[7] = test system: MALME-3M melanoma
[8] = test system: MDA-MB-435
[9] = test system: OVCAR-3 ovarian
[10] = test system: UACC-257 melanoma
[11] = test system: HT29 colon
[12] = test system: SK-MEL-5 melanoma
[13] = test system: U251 CNS
[14] = test system: NCI-H460 lung
[15] = test system: IGROV1 ovarian
[16] = test system: HOP-92 NSCLC
[17] = test system: UACC-62 melanoma
[18] = test system: SK-MEL-28 melanoma
[19] = test system: MCF7 breast
[20] = test system: HOP-62 NSCLC
[21] = test system: MDA-N
[22] = test system: HS 578T breast
[23] = test system: M14 melanoma
[24] = test system: SN12C renal
[25] = test system: A498 renal
[26] = test system: SR leukemia
[27] = test system: MOLT-4 leukemia
[28] = test system: SK-OV-3 ovarian
[29] = test system: LOX IMVI melanoma
[30] = test system: RXF 393 renal
[31] = test system: OVCAR-4 ovarian
[32] = test system: HCT-15 colon
[33] = test system: CCRF-CEM leukemia
[34] = test system: SNB-19 CNS
[35] = test system: SW-620 colon
[36] = test system: NCI-H23 lung
[37] = test system: OVCAR-8 ovarian
[38] = test system: ACHN renal
[39] = test system: A549 NSCLC
[40] = test system: HCC-2998 colon
[41] = test system: HL-60(TB) leukemia
[42] = test system: NCI-H226 lung
[43] = test system: SF-539 CNS
[44] = test system: SNB-75 CNS
[45] = test system: TK-10 renal
[46] = test system: EKVX NSCLC
[47] = test system: 786-0 renal
[48] = test system: UO-31 renal
[49] = test system: COLO 205 colon
[50] = test system: SF-295 CNS
[51] = test system: PC-3 prostate
[52] = test system: MDA-MB-231 breast
[53] = test system: NCI/ADR-RES ovarian
[54] = test system: RPMI-8226 leukemia
[55] = test system: K-562 leukemia
[56] = test system: SF-268 CNS
[57] = test system: DU-145 prostate
[58] = test system: NCI-H522 lung

## O=C(N=Nc1c(O)[nH]c2c(Cl)cc(Cl)cc12)c1ccccc1O
[1]
  TGI: 27.3 µM
[2]
  TGI: 32.4 µM
[3]
  TGI: 26.1 µM
[4]
  TGI: 29.5 µM
[5]
  TGI: 27.7 µM
[6]
  TGI: 31.1 µM
[7]
  TGI: 27.1 µM
[8]
  TGI: 26.9 µM
[9]
  TGI: 25.1 µM
[10]
  TGI: 33.2 µM
[11]
  TGI: 34.8 µM
[12]
  TGI: 28.7 µM
[13]
  TGI: 21 µM
[14]
  TGI: 27.6 µM
[15]
  TGI: 26.9 µM
[16]
  TGI: 28.6 µM
[17]
  TGI: 24.8 µM
[18]
  TGI: 30 µM
[19]
  TGI: 41 µM
[20]
  TGI: 29.2 µM
[21]
  TGI: 28.1 µM
[22]
  TGI: 29 µM
[23]
  TGI: 30.3 µM
[24]
  TGI: 30.5 µM
[25]
  TGI: 30.8 µM
[26]
  TGI: 23.7 µM
[27]
  TGI: 31 µM
[28]
  TGI: 30.6 µM
[29]
  TGI: 28 µM
[30]
  TGI: 25.3 µM
[31]
  TGI: 26.9 µM
[32]
  TGI: 29.2 µM
[33]
  TGI: 46.9 µM
[34]
  TGI: 27.8 µM
[35]
  TGI: 34.5 µM
[36]
  TGI: 33.1 µM
[37]
  TGI: 25.2 µM
[38]
  TGI: 25.8 µM
[39]
  TGI: 27.4 µM
[40]
  TGI: 31.1 µM
[41]
  TGI: 43.4 µM
[42]
  TGI: 29.4 µM
[43]
  TGI: 29.6 µM
[44]
  TGI: 22.8 µM
[45]
  TGI: 29.3 µM
[46]
  TGI: 26.3 µM
[47]
  TGI: 26.3 µM
[48]
  TGI: 24.3 µM
[49]
  TGI: 38.5 µM
[50]
  TGI: 28.4 µM
[51]
  TGI: 29 µM
[52]
  TGI: 30.1 µM
[53]
  TGI: 26.3 µM

## O=C(O)CNC(=O)C(CSC(=O)OCC1c2ccccc2-c2ccccc21)NC(=O)CCC(NC(=O)OCC1c2ccccc2-c2ccccc21)C(=O)O (stereo not given)
[1]
  TGI: 32.6 µM
[2]
  TGI: > 100 µM
[3]
  TGI: > 100 µM
[54]
  TGI: 46.4 µM
[5]
  TGI: > 100 µM
[6]
  TGI: 15.7 µM
[7]
  TGI: 59.4 µM
[8]
  TGI: 34.1 µM
[9]
  TGI: > 100 µM
[10]
  TGI: > 100 µM
[12]
  TGI: > 100 µM
[14]
  TGI: 34.2 µM
[15]
  TGI: 26.8 µM
[16]
  TGI: 36.3 µM
[18]
  TGI: > 100 µM
[19]
  TGI: > 100 µM
[20]
  TGI: 28.9 µM
[21]
  TGI: 82.3 µM
[22]
  TGI: > 100 µM
[23]
  TGI: > 100 µM
[24]
  TGI: 30.7 µM
[26]
  TGI: 15.4 µM
[27]
  TGI: 45.4 µM
[28]
  TGI: > 100 µM
[29]
  TGI: 0.577 µM
[30]
  TGI: 34.7 µM
[55]
  TGI: 39.2 µM
[31]
  TGI: 29.5 µM
[32]
  TGI: 64.8 µM
[33]
  TGI: 41.2 µM
[34]
  TGI: > 100 µM
[56]
  TGI: 33.1 µM
[35]
  TGI: 35.1 µM
[36]
  TGI: > 100 µM
[37]
  TGI: 32.4 µM
[38]
  TGI: 32.8 µM
[39]
  TGI: 28 µM
[40]
  TGI: > 100 µM
[41]
  TGI: > 100 µM
[42]
  TGI: > 100 µM
[43]
  TGI: 30.6 µM
[45]
  TGI: 56 µM
[46]
  TGI: 32.2 µM
[47]
  TGI: 9.13 µM
[48]
  TGI: 33 µM
[57]
  TGI: 28.6 µM
[49]
  TGI: 31.1 µM
[50]
  TGI: 30.5 µM
[51]
  TGI: 28.9 µM
[58]
  TGI: 3.52 µM
[52]
  TGI: 31.9 µM
[53]
  TGI: 33.7 µM

— PubChem BioAssay (NCI)
